From patent US20080269293A1, “PYRAZOLE DERIVATIVES AS ANTI-PLATELET AND ANTI-THROMBOTIC AGENTS” (Pfizer Inc., priority 2006, published 2008)
pIC50: −log10 of the molar value.

These compounds were tested against T1, platelet P2Y1 receptor (Homo sapiens, UniProt P47900) (assay: P2Y1 receptor binding assay ([β-33P]-2-thiomethyl ADP)). Details: binding of 0.3 nM [β-33P]-2-thiomethyl ADP, hP2Y1 expressing 132N1 cell membrane, 25° C., 60 minutes.
T1 construct: expressed in transfected cells
Protocol: Conducting P2Y, Receptor Binding Assay
[β−^33P]-2-thiomethyl ADP (2100 Ci/mmol) was purchased from PerkinElmer, Protease Inhibitors Complete, EDTA-free, was purchased from Roche, and ADP (Adenosine diphosphate), MRS2179, and 2-thiomethy ADP (2-Me-S-ADP) were purchased from Sigma Chemical Co.
Binding of 0.3 nM [β-^33P]-2-thiomethyl ADP to platelet P2Y1 receptor in 132N1 cell membrane was carried out in triplicate at 25° C. with 96 well plate (Corning, 3365). Nonspecific binding was defined as binding in the presence of 1 μM of 2-Me-S-ADP. One […] of dimethyl sulfoxide (DMSO) or 1 μL of DMSO (Sigma-Aldrich, 472301) containing a test compound diluted to final assay concentrations of 0.1 nM to 1 mM were placed into each well of a Corning 96-well plate. A volume of 60 μL of buffer: 50 mM Tris pH 7.5 (Sigma, T-2194), 1 mM EDTA (Gibco, 15575-038) and 100 mM NaCl (Gibco, 200740-011) containing 0.3 nM [β-^33P]-2-thiomethyl ADP 40 μL of hP2Y1 expressing 132N1 cell membrane prep was added to each well. After incubation on shaker for 60 minutes, The contents of the wells are filtered and washed 8 times with Tomtec Cell Harvester through UniFilter 96, GF/B plates (PerkinElmer, 6005177) Forty five microliters […] Scintillation cocktail (Ultima-Flo-M) was added into each well and plates counted on a Trilux Microbeta Counter.
• 1. Add 1 μL DMSO or compounds into the wells according to the protocol. • 2. Add 60 μL incubation buffer with [β-^33P]-2-thiomethyl ADP into each well. • 3. Add 40 μL hP2Y1 expressing 132N1 cell membrance prep. Incubate 60 minutes on top of the shaker (IKA Shutter MTS4). • 4. Filter and wash 8× with Tomtec Cell Harvester through UniFilter GF/B plates (PerkinElmer, 6005177). • 5. Add 45 μL scintillation cocktail into each well and plates counted on a Trilux Microbeta Counter.

T1 sequence (P47900 whole entry): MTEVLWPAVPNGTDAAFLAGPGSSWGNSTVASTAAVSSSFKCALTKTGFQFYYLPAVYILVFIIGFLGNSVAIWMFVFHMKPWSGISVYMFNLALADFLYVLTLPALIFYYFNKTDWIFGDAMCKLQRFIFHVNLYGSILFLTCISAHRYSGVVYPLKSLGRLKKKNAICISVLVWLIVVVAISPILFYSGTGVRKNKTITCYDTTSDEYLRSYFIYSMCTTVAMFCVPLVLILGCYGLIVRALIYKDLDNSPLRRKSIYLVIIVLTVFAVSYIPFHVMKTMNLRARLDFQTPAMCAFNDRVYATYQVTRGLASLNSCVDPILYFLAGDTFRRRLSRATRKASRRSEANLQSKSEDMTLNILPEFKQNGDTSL

pIC50	Compound
7.92	Cc1cc(Oc2ccccc2NC(=O)Nc2ccc(OC(F)(F)F)cc2)n(-c2ccc(F)cc2Cl)n1 [Example 114, 1-(2-(1-(2-chloro-4-fluorophenyl)-3-methyl-1H-pyrazol-5-yloxy)phenyl)-3-(4-(trifluoromethoxy)phenyl)urea]
7.05	Cc1cc(Oc2ccccc2NC(=O)Nc2ccc(OC(F)(F)F)cc2)n(-c2cccc(Cl)c2Cl)n1 [Example 4]
6.80	Cc1cc(Oc2ccccc2NC(=O)Nc2ccc(C3CCSCC3)cc2)n(-c2ccccc2Cl)n1 [Example 127, 1-(2-(1-(2-chlorophenyl)-3-methyl-1H-pyrazol-5-yloxy)phenyl)-3-(4-(tetrahydro-2H-thiopyran-4-yl)phenyl)urea]
6.91	CCc1ccccc1-n1nc(C)cc1Oc1ccccc1NC(=O)Nc1ccc(C(F)(F)F)cc1F [Example 93, 1-(2-(1-(2-ethylphenyl)-3-methyl-1H-pyrazol-5-yloxy)phenyl)-3-(2-fluoro-4-(trifluoromethyl)phenyl)urea]
6.82	Cc1cc(Oc2ccccc2NC(=O)Nc2ccc(OC(F)(F)F)cc2)n(-c2ccccc2C)n1 [Example 1, 1-[2-(5-Methyl-2-o-tolyl-2H-pyrazol-3-yloxy)-phenyl]-3-(4-trifluoromethoxy-phenyl)-urea]
7.22	CCc1ccccc1-n1nc(C)cc1Oc1ccccc1NC(=O)Nc1ccc(C(F)(F)F)cc1 [Example 107, 1-(2-(1-(2-ethylphenyl)-3-methyl-1H-pyrazol-5-yloxy)phenyl)-3-(4-(trifluoromethyl)phenyl)urea]
7.02	Cc1cc(Oc2ccccc2NC(=O)Nc2ccc(C(C)(C)C)cc2)n(-c2ccccc2Cl)n1 [Example 6]
6.47	Cc1cc(Oc2ccccc2NC(=O)Nc2ccc(OC(F)(F)F)cc2)n(-c2ccc(C(C)(C)C)cc2)n1 [Example 97, 1-(2-(1-(4-tert-butylphenyl)-3-methyl-1H-pyrazol-5-yloxy)phenyl)-3-(4-(trifluoromethoxy)phenyl)urea]
6.10	Cc1cc(Oc2ccccc2NC(=O)Nc2cc(F)ccc2F)n(-c2ccccc2)n1 [Example 34]
< 5.00	Cc1cc(Oc2ccccc2NC(=O)Nc2ccc(C3CCN(C)CC3)cc2)n(-c2ccccc2Cl)n1 [Example 122, 1-(2-(1-(2-chlorophenyl)-3-methyl-1H-pyrazol-5-yloxy)phenyl)-3-(4-(1-methylpiperidin-4-yl)phenyl)urea]
< 5.00	Cc1cc(Oc2ccccc2NC(=O)Nc2ccc(-n3cccn3)cc2)n(-c2ccccc2Cl)n1 [Example 99, 1-(4-(1H-pyrazol-1-yl)phenyl)-3-(2-(1-(2-chlorophenyl)-3-methyl-1H-pyrazol-5-yloxy)phenyl)urea]
6.74	CCc1ccccc1-n1nc(C)cc1Oc1ccccc1NC(=O)Nc1ccc(Oc2ccccc2)cc1 [Example 92, 1-(2-(1-(2-ethylphenyl)-3-methyl-1H-pyrazol-5-yloxy)phenyl)-3-(4-phenoxyphenyl)urea]
5.99	CCc1ccccc1-n1nc(C)cc1Oc1ccccc1NC(=O)Nc1ccc(C#N)cc1 [Example 101, 1-(4-cyanophenyl)-3-(2-(1-(2-ethylphenyl)-3-methyl-1H-pyrazol-5-yloxy)phenyl)urea]
< 5.00	COc1cccc(Oc2cc(C)nn2-c2ccccc2)c1NC(=O)Nc1ccc(OC(F)(F)F)cc1 [Example 33]
6.16	CCc1ccccc1-n1nc(C)cc1Oc1ccccc1NC(=O)Nc1ccccc1 [Example 95, 1-(2-(1-(2-ethylphenyl)-3-methyl-1H-pyrazol-5-yloxy)phenyl)-3-phenylurea]
6.91	Cc1cc(Oc2ccccc2NC(=O)Nc2ccc(OC(F)(F)F)cc2)n(-c2cccc(Cl)c2)n1 [Example 7]
6.77	Cc1cc(Oc2ccccc2NC(=O)Nc2ccc(Br)cc2)n(-c2ccccc2Cl)n1 [Example 126, 1-(4-bromophenyl)-3-(2-(1-(2-chlorophenyl)-3-methyl-1H-pyrazol-5-yloxy)phenyl)urea]
6.54	CCc1ccccc1-n1nc(C)cc1Oc1ccccc1NC(=O)Nc1ccc(F)cc1F [Example 106, 1-(2,4-difluorophenyl)-3-(2-(1-(2-ethylphenyl)-3-methyl-1H-pyrazol-5-yloxy)phenyl)urea]
6.57	O=C(Nc1ccc(OC(F)(F)F)cc1)Nc1ccccc1Oc1ccnn1-c1ccccc1Cl [Example 25, 1-{2-[2-(2-Chloro-phenyl)-2H-pyrazol-3-yloxy]-phenyl}-3-(4-trifluoromethoxy-phenyl)-urea]
6.14	COc1ccc(-n2nc(C)cc2Oc2ccccc2NC(=O)Nc2ccc(OC(F)(F)F)cc2)cc1 [Example 18]
6.12	Cc1cc(Oc2ccccc2NC(=O)Nc2ccc(C3CCOCC3)cc2)n(-c2ccccc2Cl)n1 [Example 128, 1-(2-(1-(2-chlorophenyl)-3-methyl-1H-pyrazol-5-yloxy)phenyl)-3-(4-(tetrahydro-2H-pyran-4-yl)phenyl)urea]

pIC50	Compound
5.72	Cc1cc(Oc2ccccc2NC(=O)Nc2cccc(F)c2)n(-c2ccccc2)n1 [Example 38]
6.85	Cc1cc(Oc2ccccc2NC(=O)Nc2ccc(OC(F)(F)F)cc2)n(-c2c(Cl)cccc2Cl)n1 [Example 19]
6.75	Cc1cc(Oc2ccccc2NC(=O)Nc2ccc(-c3ccccc3)cc2)n(-c2ccccc2Cl)n1 [Example 96, 1-(4-(phenyl)-phenyl)-3-(2-(1-(2-chlorophenyl)-3-methyl-1H-pyrazol-5-yloxy)phenyl)urea]
< 5.00	COc1cc(NC(=O)Nc2ccccc2Oc2cc(C)nn2-c2ccccc2)cc(OC)c1OC [Example 57]
6.54	CCc1ccccc1-n1nc(C)cc1Oc1ccccc1NC(=O)Nc1ccc(N2CCCCC2)cc1 [Example 110, 1-(2-(1-(2-ethylphenyl)-3-methyl-1H-pyrazol-5-yloxy)phenyl)-3-(4-(piperidin-1-yl)phenyl)urea]
< 5.00	Cc1cc(Oc2ccccc2NC(=O)Nc2c(C)cccc2C)n(-c2ccccc2)n1 [Example 58]
< 5.00	CCc1ccccc1-n1nc(C)cc1Oc1ccccc1NC(=O)Nc1ccc(CN2CCCCC2)cc1 [Example 105, 1-(2-(1-(2-ethylphenyl)-3-methyl-1H-pyrazol-5-yloxy)phenyl)-3-(4-(piperidin-1-ylmethyl)phenyl)urea]
7.06	CCCc1ccccc1-n1nc(C)cc1Oc1ccccc1NC(=O)Nc1ccc(OC(F)(F)F)cc1 [Example 119, 1-(2-(1-(2-propylphenyl)-3-methyl-1H-pyrazol-5-yloxy)phenyl)-3-(4-(trifluoromethoxy)phenyl)urea]
6.73	Cc1ccc(-n2nc(C)cc2Oc2ccccc2NC(=O)Nc2ccc(OC(F)(F)F)cc2)cc1 [Example 10]
< 5.00	COc1cc(NC(=O)Nc2ccccc2Oc2cc(C)nn2-c2ccccc2)cc(OC)c1 [Example 80]
< 5.00	Cc1ccc(NC(=O)Nc2ccccc2Oc2cc(C)nn2-c2ccccc2)c(C)c1 [Example 60]
< 5.00	Cc1ccc(C)c(NC(=O)Nc2ccccc2Oc2cc(C)nn2-c2ccccc2)c1 [Example 79]
< 5.00	CCc1ccccc1-n1nc(C)cc1Oc1ccccc1NC(=O)Nc1ccc(-n2cncn2)cc1 [Example 112, 1-(4-(1H-1,2,4-triazol-1-yl)phenyl)-3-(2-(1-(2-ethylphenyl)-3-methyl-1H-pyrazol-5-yloxy)phenyl)urea]
< 5.00	Cc1cc(Oc2ccc(C#N)cc2NC(=O)Nc2ccc(OC(F)(F)F)cc2)n(-c2ccccc2)n1 [Example 32]
< 5.00	Cc1cc(Oc2ccccc2NC(=O)Nc2cc(F)ccc2C)n(-c2ccccc2)n1 [Example 48]
7.49	Cc1cc(Oc2ccccc2NC(=O)Nc2ccc(C3CCCC3)cc2)n(-c2ccccc2Cl)n1 [Example 124, 1-(2-(1-(2-chlorophenyl)-3-methyl-1H-pyrazol-5-yloxy)phenyl)-3-(4-cyclopentylphenyl)urea]
< 5.00	Cc1cc(Oc2ccccc2NC(=O)Nc2ccc(C3CCNCC3)cc2)n(-c2ccccc2Cl)n1 [Example 120, 1-(2-(1-(2-chlorophenyl)-3-methyl-1H-pyrazol-5-yloxy)phenyl)-3-(4-(piperidin-4-yl)phenyl)urea]
< 5.00	CCc1cc(Oc2ccccc2NC(=O)Nc2ccc(OC(F)(F)F)cc2)n(-c2ccccc2)n1 [Example 28, 1-[2-(5-Ethyl-2-phenyl-2H-pyrazol-3-yloxy)-phenyl]-3-(4-trifluoromethoxy-phenyl)-urea]
6.88	Cc1cc(Oc2ccccc2NC(=O)Nc2ccc(OC(F)(F)F)cc2)n(-c2ccc(F)cc2F)n1 [Example 14]
6.57	Cc1cc(Oc2ncccc2NC(=O)Nc2ccc(C(C)(C)C)cc2)n(-c2ccccc2)n1 [Example 21, 1-(4-tert-Butyl-phenyl)-3-[2-(5-methyl-2-phenyl-2H-pyrazol-3-yloxy)-pyridin-3-yl]-urea]
